What was measured:
Assay type in all cases: physicochemical
[1] = Angle of repose by injection method (fixed funnel method); conditions: average of 5 groups
Description: (§1) In this test, the angle of repose of the crystalline form I of (R)-4-hydroxy-2-oxo-1-pyrrolidineacetamide prepared by the methods of Examples 1 and 3-7 was measured by an injection method (fixed funnel method). The samples to be tested were poured into the funnel, and they were gently and evenly dropped into the center of the disc to form a cone, when the materials fell freely from the oblique edge of the powder along the edge of the disc, the feedings were stopped, and the angles of repose were determined by the protractor; the sample traits and the clarity of the solution were examined, each example was tested for 5 groups and the average was obtained, the results are as follows: […]

Clarity of solution = conditions: average of 5 groups
Description: as §1

[2] = Stability test under high temperature conditions (60° C., 5 days), related substance; conditions: for Day 0: Related substance / Day 5: Related substance / Related material changes: 60° C.; for Day 0: Related substance: day 0, average of 5 groups; for Day 5: Related substance: day 5, average of 5 groups; for Related material changes: day 5 versus day 0; for changes of the related substances in 5 days: high temperature of 60° C.
Description: Stability test of the crystalline form I of (R)-4-hydroxy-2-oxo-1-pyrrolidineacetamideunder high temperature conditions. The crystalline form I of (R)-4-hydroxy-2-oxo-1-pyrrolidinylacetamide prepared in Examples 1 and 3-7 was placed in a flat weighing bottle and spread into thin layers of <5 mm thick, sealed in a clean container respectively and placed at 60° C. for 5 days; samples were taken and detected on day 0 and day 5, respectively.

Solubility in water = experiment: Solubility in water

| SMILES | angle of repose [1] | clarity of solution (Clarity of solution) | Day 0: Related substance [2] | Day 5: Related substance [2] | Related material changes [2] | solubility (Solubility in water) | changes of the related substances in 5 days [2] | changes of the related substances in 5 days ([2]; listed as crystalline form of (R)-4-hydroxy-2-oxo-1-pyrrolidineacetamide) |
| --- | --- | --- | --- | --- | --- | --- | --- | --- |
| NC(=O)CN1C[C@H](O)CC1=O [Example 7, (R)-4-hydroxy-2-oxo-1-pyrrolidineacetamide] | 28 ° | clarification | 0.22% | 0.33% | 0.11% |  |  |  |
| NC(=O)CN1C[C@H](O)CC1=O [Example 3, (R)-4-hydroxy-2-oxo-1-pyrrolidineacetamide] | 28.3 ° | clarification | 0.22% | 0.36% | 0.14% |  |  |  |
| NC(=O)CN1C[C@H](O)CC1=O [Example 4, (R)-4-hydroxy-2-oxo-1-pyrrolidineacetamide] | 28.5 ° | clarification | 0.26% | 0.39% | 0.13% |  |  |  |
| NC(=O)CN1C[C@H](O)CC1=O [Example 6, (R)-4-hydroxy-2-oxo-1-pyrrolidineacetamide] | 27.8 ° | clarification | 0.26% | 0.37% | 0.11% |  |  |  |
| NC(=O)CN1C[C@H](O)CC1=O [(R)-4-hydroxy-2-oxo-1-pyrrolidineacetamide] |  |  |  |  |  | ≥ 100 mg/mL | less than 0.15% | tiny |
| NC(=O)CN1C[C@H](O)CC1=O [Example 5, (R)-4-hydroxy-2-oxo-1-pyrrolidineacetamide] | 27.8 ° | clarification | 0.25% | 0.37% | 0.12% |  |  |  |
| NC(=O)CN1C[C@H](O)CC1=O [Example 1, (R)-4-hydroxy-2-oxo-1-pyrrolidineacetamide] | 28 ° | clarification | 0.23% | 0.35% | 0.12% |  |  |  |

— patent publication US10961192B2, “(R)-4-hydroxy-2-oxo-1-pyrrolidineacetamide crystal form, preparation method therefor, and application thereof” (CHONGQING RUZER PHARMACEUTICAL COMPANY LIMITED, priority 2017, dated 2021)
